# Test results taken from a melting point compilation (Tetko et al.; mined from patent text by program, amines drawn as free bases though some values may be those of a salt).
row,SMILES,melting point
1,O[C@@H](COc1cccc(-c2noc3ccsc23)c1)CN1CCN(c2ccccc2Cl)CC1,83 to 86 °C
2,O=C1c2cccc3cc([N+](=O)[O-])cc(c23)C(=O)N1OCc1ccccc1,239 to 241 °C
3,COC(=O)c1ccc(CO)nc1C1=NC(C)(C(C)C)C(=O)N1 (centres undefined),115 to 118 °C
4,CC(C#N)(COc1cc(F)c(F)cc1-c1ccsc1)NC(=O)c1ccc(OC(F)(F)F)cc1 (centres undefined),128 to 130 °C
5,CC(=O)Nc1ccc(OCC(=O)O)c(C(=O)NCc2ccc(Br)cc2F)c1,235 °C
6,Fc1ccc(-c2[nH]cc(CCCN3CCNCC3)c2-c2ccncc2)cc1,162 to 164 °C
7,CCOC(=O)C(C)(C)CCCOc1ccc(OCCn2c(=O)sc3cc(C(=O)c4ccccc4)ccc32)cc1,82 to 84 °C
8,N#CCCNC(=O)c1n[nH]cc1NC(=O)c1cccs1,226 to 227 °C
9,Fc1cc(F)c2c(Nc3c(Cl)ccc4c3OCO4)ncnc2c1,234 to 237 °C
10,CC(C)(C#N)c1ccc(C(=O)c2cccs2)cc1,139 °C
11,CC(C)(C)NCC(O)COc1ccc2c(=O)cc(-c3cc(O)cc(O)c3)oc2c1 (centres undefined),153 °C
12,CS(=O)(=O)c1ccc(-c2[nH]c3ccc(Br)cc3c2-c2ccccc2)cc1,262 to 264 °C
13,COC(=O)c1ccc(OCC(C)C)c([N+](=O)[O-])c1,77 °C
14,CC(c1ccc(N2CCCC2)cc1)c1ccc(N2CCCC2)cc1,112 °C
15,COc1ccccc1-n1c(=O)[nH]c2c(C(N)=O)nc(Nc3cccc(O)c3)nc21,190 to 191 °C
16,CCCCc1nc2cc(Cl)c(Cl)cc2n1Cc1ccc(C(=O)O)cc1,244 to 246 °C
17,CCOC(=O)C1(c2ccc(Cl)cc2)OCC2(CO1)c1ccccc1Oc1ccccc12,131 to 132 °C
18,CC[C@H](COC)n1cc(Br)nc(N2CCc3cc(OC)cc(Br)c32)c1=O,122 to 123 °C
19,CCOC(=O)N1CCN(C(=S)Cl)CC1,107 to 111 °C
20,COc1cc(C(=O)NS(=O)(=O)c2ccccc2C)ccc1Cc1cn(C)c2ccc(CC(C)NC(=O)N(C)C)cc12 (centres undefined),125 to 135 °C
21,O=c1[nH]cc(F)c(=S)[nH]1,254 to 255 °C
22,CSc1nc(C)c(CCN2CC=C(c3c[nH]c4ccccc34)CC2)c(=O)n1C,245 to 246 °C
23,CNC(=O)c1cnc2ccccc2c1-c1ccccn1,171 to 172 °C
24,Cc1ccc(-c2ccccc2C(N)=O)cc1,128 to 130 °C
25,COc1cc(C2C3=C(COC3=O)Nc3ccc4ncsc4c32)ccc1O (centres undefined),296 to 297 °C

row,SMILES,melting point
1,C=CC(=O)OC(C#N)Cc1ccc(OC)c(OC)c1 (centres undefined),154 to 156 °C
2,COc1ccc(Br)c(CC(C#N)C(=O)O)c1OC (centres undefined),120 to 122 °C
3,CC(=O)c1cn(C)c2ccc(F)cc12,158 to 160 °C
4,Cc1nc2c(C(F)(F)F)cccc2c(O)c1C(=O)O,260 °C
5,CC(C)C(C(=O)O)c1ccc([N+](=O)[O-])cc1 (centres undefined),124 to 127 °C
6,NC(=O)COc1cccc(NC(=O)c2cc(-c3cccc(F)c3)ccc2F)c1,203 to 206 °C
7,CCC(CC)Oc1cc(C)nc(Oc2c(C)cc(C)cc2C)c1[N+](=O)[O-],106 to 109 °C
8,O=C(c1ncccc1OC1SCC(O)C(O)C1O)N1CCCCC1 (centres undefined),81 to 92 °C
9,O=C1CC(c2ccc(O)cc2)=Nc2ccc(N3CCCC3)cc21,304 to 306 °C
10,CC(C)(C)NC(=O)[C@@H]1C[C@H](Br)CN1C(=O)[C@@H](O)[C@H](Cc1ccccc1)NC(=O)[C@H](CC(N)=O)NC(=O)OCc1ccccc1,100 to 105 °C
11,COC[C@H]1CCCN1C(=O)c1cc(-c2ccccc2)c(=O)n2c1-c1sccc1C2,150 to 152 °C
12,COc1cc(C(C)=O)ccc1OCCCCN1CCN(c2n[nH]c3cc(F)ccc23)CC1,156 to 158 °C
13,CCOC(=O)c1cc2c3ccccc3[nH]c(=S)n2n1,242 to 243 °C
14,COc1ccc(C(=O)c2ccccc2-c2ccc(C#N)cc2)cc1,121 to 123 °C
15,CC(C)n1nc(-c2cc(C#N)c(C(N)=O)nc2-c2ccccc2)ccc1=O,221 to 223 °C
16,CC(C)(C)OC(=O)N1CCC(CO)(c2ccccc2)CC1,64 °C
17,O=C(OCCN1CCCC1)c1c[nH]c2ccccc12,145 to 146 °C
18,CCCn1c(CCO)nc2c(N)nc3cc(OCCCNC(=O)c4cccnc4)ccc3c21,184 °C
19,COc1ccc(CNc2c(C)c(C)c3c(c2C)C(c2ccc(C)cc2)C(C)(C)O3)cc1 (centres undefined),97 to 98 °C
20,CC(C)c1nc(N)nc(-c2ccc(F)c3ccccc23)c1Br,176 to 180 °C
21,CC(C)(C)c1cc(C(C)(C)C)c(OP2OCCN2C(C)(C)C)c(C(C)(C)C)c1 (centres undefined),73 to 74 °C
22,Cc1cc(C#N)sc1-c1ccc2c(c1)C(C)(C)OC(=S)N2,211 to 212 °C
23,CN(C)CCCNC(=O)[C@@H](Cc1ccc(-c2ccccc2)cc1)NC(=O)CC(C)(C)CC(=O)O,84 to 92 °C
24,O=c1[nH]c2ncc(-c3cccnc3)nc2n1CC1CCCCC1,205 °C
25,Clc1ccc2nc(CBr)c(CBr)nc2c1,149 to 150 °C

row,SMILES,melting point
1,O=S1(=O)CCC(c2ccccc2)(c2ccccc2)[C@@H]2CN(Cc3ccccc3)C[C@@H]21 (racemic),186 °C
2,COc1ccc(-c2nc(C3=NNC(=O)CC3)sc2-c2ccc(OC)cc2)cc1,242 to 247 °C
3,CS(=O)(=O)N(N(CCCl)S(=O)(=O)c1ccccc1)S(C)(=O)=O,114 to 115 °C
4,Cc1ccccc1Nc1nc(N(C)c2ccccc2)c2cccc(OCCCN(C)C)c2n1,77 to 79 °C
5,O=C(Oc1cccc2cnccc12)c1cc2ccccc2oc1=O,190 to 193 °C
6,O=C1Nc2c(cc(F)c(F)c2F)C1=O,193 to 194 °C
7,Cc1cc2c(cc1-c1ccc(O)c(C=O)c1)C(C)(C)CCC2(C)C,138 to 139 °C
8,Cn1cc(-c2cc3cccnc3[nH]2)c2cc(C(N)=O)ccc21,330 to 332 °C
9,CCc1ncnc2ccc(I)cc12,110 to 113 °C
10,CCCc1nn(-c2ccc(C(F)(F)F)cn2)cc1CCCOc1ccc(CCC(=O)O)c(C)c1,124 to 126 °C
11,COC(=O)C(Cc1cc(Br)c(S(=O)(=O)c2ccc(OC)c(C(C)C)c2)c(Br)c1)C(=O)OC,121 to 123 °C
12,COc1cccc(-c2cc(F)c3c(c2)CC(CN)O3)c1 (centres undefined),> 250 °C
13,CN1CCN(c2ncnc3nc(-c4ccncc4)[nH]c23)CC1,333 to 335 °C
14,N#CC(C#N)C1(C#N)CCSc2ccccc21 (centres undefined),136 to 137 °C
15,CO[C@@H]1c2ccn3c(C)c(C)nc3c2N[C@H](c2ccccc2)[C@H]1OC=O,152 to 153 °C
16,CCCCCCCCCCCCCCOc1ccc(OCc2ccccc2)c(C(=O)O)c1,73 to 74 °C
17,CCC(C)(C)NC(Nc1cc(C(F)(F)F)cc(C(F)(F)F)c1)=C(C#N)S(=O)(=O)c1ccc(Cl)cc1,205 to 207 °C
18,Cc1cc(SCc2ccc(OCc3ccc(F)cc3)cc2)ccc1OCC(=O)O,154 to 155 °C
19,Cc1cc(NCc2ccccc2)c([N+](=O)[O-])c(=O)[nH]1,246 to 247 °C
20,COc1cc(/C=C/c2cc(/C=C/c3ccc4[nH]ccc4c3)n[nH]2)ccc1OCc1ccccn1,96 to 101 °C
21,O=C(CCCCCN1C(=O)c2ccc([N+](=O)[O-])cc2C1=O)NO,130 to 132 °C
22,CCOC(=O)/C=C/c1cn(Cc2ccccc2)nc1OCc1ccccc1,88 to 89 °C
23,O=C1CCC(Nc2ncc3ncnc(Nc4ccc(F)c(Cl)c4)c3n2)CC1,232 to 234 °C
24,Cc1c(F)c(N2CCN(C=O)C(C)C2)cc2c1C(=O)C(C=O)CN2C1CC1 (centres undefined),148 to 150 °C
25,CC(=O)NC1(c2ccc(CN3CCN(c4cccc(F)n4)CC3)cc2)CC1,135 to 136 °C

row,SMILES,melting point
1,O=C1C(Cc2ccccc2Cl)c2cc([N+](=O)[O-])ccc2ON1CCO (centres undefined),108 to 110 °C
2,COc1ccc(CCc2oc3ccc(C#N)cc3c2C(C)=O)cc1,130 to 131 °C
3,CCN(c1cc(Cl)ccc1C(=O)c1cnoc1C1CC1)S(C)(=O)=O,114 to 116 °C
4,COc1ccc2c(c1)C1(CCN(CCCC(=O)c3ccc(F)cc3)C1)CC2O (centres undefined),163 to 165 °C
5,COc1ccc(Cn2nc(-c3ccc(SC)cc3)c(-c3ccc(F)cc3)cc2=O)cc1,165 to 166 °C
6,O=C(O)COc1cccnc1Br,172 to 174 °C
7,O=C(c1ccccc1)c1cc(-c2ccc(Cl)cc2)c(N2CCOCC2)s1,180 °C
8,CCCCC1(C(=O)Nc2ccc(Oc3ccc(Cl)cc3)c(C(F)(F)F)c2)CC1,104 to 106 °C
9,Oc1cc2c(nn1)CCCCCCCCCC2,188 to 189 °C
10,C[C@]1(COc2ccc(N3CCN(Cc4ccc(N5CCC(Oc6ccc(OC(F)(F)F)cc6)CC5)cc4)CC3)cc2)Cn2cc([N+](=O)[O-])nc2O1,198 to 201 °C
11,CC1Cc2cc3c(cc2C(c2ccc([N+](=O)[O-])cc2)=NN1c1ncccn1)OCO3 (centres undefined),261 to 263 °C
12,COCOc1ccc(C=O)c(OCc2ccc(Cl)cc2Cl)c1C,128 °C
13,O=C(O)c1cnncc1C(=O)c1cc(F)ccc1F,202 to 205 °C
14,CCOC(=O)C1=C(C)N=C(SCc2ccc(OC)cc2)N(S(=O)(=O)c2ccccc2)C1c1cccc([N+](=O)[O-])c1 (centres undefined),86 to 88 °C
15,O=C(/C=C/c1ccc(Br)cc1)Nc1ccccc1C(=O)O,215 to 216 °C
16,COc1cc(OC)c(-c2c(C)noc2C)cc1C=CC(=O)c1ccc(C(=O)O)cc1,> 260 °C
17,COc1cc2c(cc1OC)C(=O)c1cc3ccccc3cc1C2=O,> 250 °C
18,O=c1[nH]c2ccccc2cc1CN1CCN(c2ccc(Cl)cc2)CC1,256 to 259 °C
19,CCOC(=O)CCc1cn(Cc2ccc(O)cc2)nc1O,143 to 144 °C
20,CC(C)(C)c1ccc(C(=O)Nc2cc(Cl)c(N)cc2O)cc1,164 to 165 °C
21,CCC[C@@](CCc1ccccc1)(CC(=O)OCOc1ccc(-c2ccccc2)cc1)OCOc1ccc(-c2ccccc2)cc1,104 to 106 °C
22,C(CCCN1CCCNC1)CCCN1CCCNC1,52 to 53 °C
23,CC(C)n1cc(C(=O)Nc2nccs2)c2ccc(O)cc21,239 to 241 °C
24,CCCCCCCCCCCCCCn1nnc(NC(=O)Nc2c(C(C)C)cccc2C(C)C)n1,112 to 114 °C
